# Tests used:
# [1] = Intrinsic clearance rate and half-life in rat liver microsomes; assay type: in vitro ADME; conditions: for half-life: rat
# Method: 1 mL of a dichloromethane solution was respectively added into centrifuge tubes filled with test substance powders K2 (molecular formula C23H27N3O4, 4.6 mg), K3 (molecular formula C23H26FN3O4, 5.0 mg) and K4 (molecular formula C23H25F2N3O4, 5.6 mg) for dissolving, and subjected to ultrasonic treatment for 30 min to obtain a K2 stock solution with the mass concentration of 4.6 mg/mL, a K3 stock solution with the mass concentration of 5.0 mg/mL and a K4 stock solution with the mass concentration of 5.6 mg/mL. The stock solutions were sealedly stored in a refrigerator at −20° C. for later use. Before use, the stock solutions were gradually diluted with methanol to corresponding mass concentration to respectively prepare 0.02, 0.05, 0.22, 0.49, 0.96, 2.37 and 4.90 ng/mL of K2 series standard sample working solutions, 0.02, 0.05, 0.10, 0.19, 1.00, 2.01 and 4.93 ng/mL K3 series standard sample working solutions, and 0.10, 0.20, 0.53, 0.96, 2.42, 5.10 and 10.10 ng/mL K4 series standard sample working solutions.
# 5 μL of the test drugs, 2 μL of rat liver microsomes and 468 μL of a PBS buffer solution were taken by using a pipette and prepared a premixed solution. The premixed solution was incubated for 5 min in a water bath kettle at 37° C., 47.5 μL of the premixed solution was taken after the incubation was finished, and the premixed solution, 100 μL of ice-cold acetonitrile and 2.5 μL of a PBS buffer solution were added to another new tube after to be gently mixed evenly to obtain a control group. The reaction was started by adding 22.5 μL of a NADPH solution to the remaining premixed solution, the reaction solution was gently pipetted, and the reaction was stopped by immediately taking 50 μL of the premixed solution and 100 μL of acetonitrile in a new tube. Then the incubation liquid was put into the water bath for incubation, 50 μL of the incubation liquid was respectively taken at 5 min, 10 min, 20 min, 30 min, 45 min, 60 min and 90 min, and the reaction was terminated by adding 100 μL of acetonitrile. The reaction solution was centrifuged at 12,000 r/min for 10 min, and the supernatant was taken and detected on a machine.
# • Chromatographic column: Hypersil GOLD 100*2.1 mm 3 μm liquid chromatography column • Mobile phase: 0.1% formic acid aqueous solution (A); and 100% acetonitrile (B) • Gradient elution (0-1 min: 50% B, 1-5 min: 50% B-90% B, 5-7 min: 90% B, 7-7.1 min: 50% B, and 7.1-10 min: 50% B) • Flow rate: 0.3 ml/min; column temperature: 40° C.; and injection volume: 5 μL […]
# Sample solutions were subjected to sample injection analysis under the chromatographic and mass spectrometry conditions, and the peak areas were recorded. […]
# [2] = biological target: Cathepsin K (Homo sapiens (Human), UniProt P43235); test: Cat K inhibitor screening kit, AFC substrate fluorescence; assay type: biochemical
# Chain of Cathepsin K (P43235 115-329): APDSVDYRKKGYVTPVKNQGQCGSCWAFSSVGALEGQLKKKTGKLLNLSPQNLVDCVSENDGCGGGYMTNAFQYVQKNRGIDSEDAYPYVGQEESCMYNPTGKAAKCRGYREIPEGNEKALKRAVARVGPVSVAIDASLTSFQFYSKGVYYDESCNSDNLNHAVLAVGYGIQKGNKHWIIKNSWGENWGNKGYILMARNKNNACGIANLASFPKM
# Method: Reagent information: Cat K inhibitor screening kit: batch number, 6L23K01500; supplier, BiVision. Drug preparation: compounds were dissolved in DMSO and prepared into 10 mM stock solutions. When in use, the stock solutions were prepared into the required concentrations by using a buffer.
# Cathepsin K (CTSK, EC 3.4.22.38) is a lysosomal cysteine protease, participates in osteoclastic bone remodeling and resorption, and can further degrade collagen, gelatin and elastin. The cathepsin K inhibitor screening kit from Biovision uses the ability of the active cathepsin K to cleave a synthetic AFC-based peptide substrate to release AFC and the AFC can be easily quantified by using a fluorometer or fluorescent microplate reader. In the presence of a specific cathepsin K specific inhibitor, the cleavage of the substrate is reduced/eliminated, resulting in a reduction or complete loss of AFC fluorescence. The simple and high-throughput adaptive assay kit can be used to screen/study/characterize a potential inhibitor of the cathepsin K.
# 20 μL of a buffer, a Cat K inhibitor and test compounds (1 μM and 10 μM) were added to 96-well plates to serve as an EC well, an IC well and an S well, respectively; 50 μL of a Cat K enzyme solution was added into all the wells respectively and the mixture was incubated for 10-15 min at room temperature to establish an enzyme inhibitor complex; 30 μL of a Cat K substrate solution was added into all the wells and the mixture was incubated for 30-60 min at room temperature; and the final volume of the reaction was 100 μL.
# The screening method was the same as 1.1, the concentrations of the test compounds were set between 0.1 nM and 10 μM, 4-5 concentrations were selected for detection, IC50 curves were drawn, and IC50 values were calculated.
# [3] = test system: Cathepsin S; test: Screening of Cathepsin S, fluorescence; assay type: biochemical; conditions: >> inhibition rate did not exceed 20% at test concentration; > greater than 35%; ≈ about 50%; < less than 50%
# Method: 10 μL of a buffer, a Cat S inhibitor and test compounds (1 μM and 10 μM) were added to 96-well plates to serve as an EC well, an IC well and an S well, respectively; 50 μL of a […] was added into all the wells respectively and the mixture was incubated for 10-15 min at room temperature to establish an enzyme inhibitor complex; 40 μL of a Cat S substrate solution was added into all the wells and the mixture was incubated for 30-60 min at room temperature; and the final volume of the reaction was 100 μL.
# (§1) The screening method was the same as above, the concentrations of the test compounds were set between 0.1 nM and 10 μM, 4-5 concentrations were selected for detection, IC50 curves were drawn, and IC50 values were calculated.
# [4] = biological target: Cathepsin B (Homo sapiens (Human), UniProt P07858); test: Screening of Cathepsin B, fluorescence; assay type: biochemical; conditions: >> inhibition rate did not exceed 20% at test concentration; > greater than 35%; ≈ about 50%; < less than 50%
# Method: 10 μL of a buffer, a Cat B inhibitor and test compounds (1 μM and 10 μM) were added to 96-well plates to serve as an EC well, an IC well and an S well, respectively; 50 μL of a Cat B enzyme solution was added into all the wells respectively and the mixture was incubated for 10-15 min at room temperature to establish an enzyme inhibitor complex; 40 μL of a Cat B substrate solution was added into all the wells and the mixture was incubated for 30-60 min at room temperature; and the final volume of the reaction was 100 μL.
# as §1
# [5] = test system: ICR mice; test: In-vivo toxicity study, single and multiple i.p. administration; conditions: for body weight vs vehicle group: all P>0.05
# Method: Male ICR mice of 6-8 weeks were used as experimental subjects and randomly divided according to body weight after adaptive feeding for one week. Then compounds of different concentrations were prepared and used for single-administration and multiple-administration experiments by intraperitoneal injection (i.p), and a vehicle of the same component was used as a reference.
# During this period, the body weight of the mice was measured daily. […] In the multiple-administration experiment, the administration doses of 50 mg/kg and 25 mg/kg were selected for administration at the frequency of once a day.
# [6] = test system: C4-2B cells; test: Migration, invasion and adhesion of C4-2B cells; assay type: cell-based; conditions: preliminary
SMILES,IC50 [2] [nM],Cat S/K ratio of inhibitory activities [3],Cat B/K ratio of inhibitory activities [4],half-life [1] [min],further results
"CC(C)(C)CN(Cc1ccc(-c2ccc(F)cc2)cc1)c1nccc(C#N)n1 [Compound K4, 2-[(2,2-dimethylpropyl){[4-(4-fluorophenyl)phenyl]methyl}amino]pyrimidine-4-carbonitrile]",,,,,reduction of clearance rate compared with Ref-03 [1]: 2 times
"CN1CCN(c2nc(-c3ccc(CN(CC(C)(C)C)c4nccc(C#N)n4)cc3)cs2)CC1 [Compound K18, 2-((4-(2-(4-methylpiperazin-1-yl)thiazol-4-yl)benzyl) (neopentyl)amino)pyrimidine-4-carbonitrile]",10 to 100,">>5,780",">>5,780",,"in-vivo toxicity (overall) ([5]; ICR mice): relatively low in-vivo toxicity; body weight vs vehicle group ([5]; i.p. 50 mg/kg and 25 mg/kg once a day, one week): No significant difference; histopathology of liver, kidneys and heart vs vehicle group ([5]; multiple administration 50 mg/kg and single administration 500 mg/kg): no obvious pathological change was observed; body weight vs vehicle group ([5]; single i.p. administration 500 mg/kg and 300 mg/kg): No significant difference; migration, invasion and adhesion of C4-2B cells [6]: inhibit the migration, invasion and adhesion processes of the C4-2B cells in a concentration-dependent manner"
"O=C1COCC1NC(=O)[C@@H]1CCCC[C@H]1C(=O)N1CCc2[nH]c3ccccc3c2C1 (stereo partly drawn) [Compound K20, (1R,2R)-2-(2,3,4,5-tetrahydro-1H-pyrido[4,3-b]indole-2-carbonyl)-N-(4-oxotetrahydrofuran-3-yl)-cyclohexane-1-carboxamide]",10 to 100,,,46.6,
"O=C1COC[C@@H]1NC(=O)[C@@H]1CCCC[C@H]1C(=O)N1CCc2c([nH]c3c(F)cccc23)C1 [Compound K21, (1R,2R)-2-(8-fluoro-2,3,4,9-tetrahydro-1H-pyrido[3,4-b]indole-2-carbonyl)-N—((S)-4-oxotetrahydrofuran-3-yl)cyclohexane-1-carboxamide]",10 to 100,>710,>710,42.4,
"O=C1COC[C@@H]1NC(=O)[C@@H]1CCCC[C@H]1C(=O)N1CCc2c([nH]c3c(F)cc(F)cc23)C1 [Compound K22, (1R,2R)-2-(6,8-difluoro-2,3,4,9-tetrahydro-1H-pyrido[3,4-b]indole-2-carbonyl)-N—((S)-4-oxotetrahydrofuran-3-yl)cyclohexane-1-carboxamide]",10 to 100,,,88.5,

# Source: patent US20250145576A1, “CATHEPSIN K INHIBITOR, AND PREPARATION METHOD THEREFOR AND USE THEREOF” (SHANDONG NEW TIME PHARMACEUTICAL CO., LTD., priority 2022, published 2025)
